{
  "source": "patent US20140271734A1",
  "about": "“BILE ACID RECYCLING INHIBITORS FOR TREATMENT OF BARRETT'S ESOPHAGUS AND GASTROESOPHAGEAL REFLUX DISEASE” (LUMENA PHARMACEUTICALS, INC., priority 2013, published 2014)",
  "key": {"[1]": {"tested_on": "serum total bile acid (SBA)", "conditions": "previous experiments; cited from earlier work"}, "[2]": {"experiment": "Systemic exposure of LUM001 in patients under 18 years (study NB-00-02-014)", "assay_type": "in vivo, human", "conditions": "for Average serum drug exposure: day eight", "experimental": "LUM001 has been administered to forty patients under the age of 18 years old. […] The drug was administered once-a-day (QD) in the morning for fourteen days. […] These doses are similar to those using to treat patients with Barrett's esophagus or GERD."}, "[3]": {"experiment": "Single-dose [14C]LUM001 oral solution: radioactivity in plasma, blood, urine, feces", "assay_type": "in vivo, human", "experimental": "This was an open-label, one-period, single-dose study of a [^14C]LUM001 oral solution. Eight healthy male subjects received an oral solution of 5 mg [^14C]LUM001 (containing approximately […] per dose). Blood samples were collected at predose and for 72 hours postdose, urine samples were collected predose and for 168 hours postdose and feces were collected predose and for 216 hours postdose. Plasma, whole blood, urine and fecal samples were analyzed for total radioactivity, and selected fecal samples were analyzed for LUM001 and relevant metabolite concentrations. In addition, metabolic profiles in selected fecal samples were obtained using high performance liquid radio chromatography (HPLRC)."}, "[4]": {"tested_on": "3-Hydroxy-3-Methylglutaryl Coenzyme A (HMG-CoA) Reductase", "experiment": "HMG-CoA reductase activity in liver microsomes of treated dogs", "assay_type": "in vivo, beagle dogs", "conditions": "14 Days; for HMG-CoA Reductase: n=8", "experimental": "Healthy female and male beagle dogs in the age range of 8 to 10 months were used. The animals were acclimated for at least four weeks before dose administration. […] Animals in the control group (group 1) were given the same number of empty capsules as the animals of group 5 to treat all dose groups the same.\nAt the end of the study, animals were anesthetized, their livers removed and flash frozen and stored at −80 C. Homogenates of three gram liver tissue samples were prepared in 25 ml homogenization buffer [0.1 M potassium phosphate buffer, pH 7.2, containing 0.1 M sucrose, 50 mM KCl, 50 mM NaF, 5 mM ethylene glycol-bis((3-aminoethyl ether)-N,N,N′,N′-tetraacetic acid (EGTA), 1 mM EDTA, 3 mM dithiothreitol (DTT), and 1 mM phenylmethylsulfonyl fluoride (PMSF)]. A microsomal fraction was prepared by centrifugation at 10,000×g for ten minutes. The supernatant was subjected to centrifugation at 105,000×g for two hours. The microsomal fraction was resuspended in a 0.1 M Na tetrapyrophosphate buffer (pH 10), with 50 mM NaF, and 1 mM EDTA, and subjected to centrifugation for one hour at 105,000×g. The microsomal fraction was resuspended in the homogenization buffer, and assayed for protein content by Coomassie Protein Plus Assay reagent.\nMicrosomes (200 μg) were preincubated for 15 minutes at 37° C. in a total volume of […] buffer containing 0.1 M potassium phosphate (pH 7.4), 10 mM imidazole, 5 mM DTT, 10 mM EDTA, 3 mM NADP, 12 mM glucose-6-phosphate and 1 unit glucose-6-phosphate dehydrogenase (catalog number G4134, Sigma, St. Louis). The HMG-CoA reductase assay was initiated by the addition of 9 nmoles (0.5 μCi) DL-[3^14C] HMG-CoA (final assay volume was […]. The mixture was incubated for 60 minutes at 37° C. after which the assay was stopped with 25 μl of 6 N HCl. [^3H]Mevalonic acid (0.1 μCi), used as an internal standard to correct for incomplete recovery, was added to the reaction mixture along with 3 mg of unlabeled mevalonic acid lactone. The mixture was then incubated for an additional 30 minutes at 37° C. The [^14C]mevalonate that was formed and converted into mevalonic acid lactone during both incubations was isolated by thin layer chromatography. Each lane was scraped into 3 ml of InstaGel XF (Packard, Meriden, Conn.) and read on a Beckman Scintillator Counter. Reagents unless noted otherwise were obtained from Sigma, St. Louis, Mo. Isotopes were obtained from NEN Life Science Products, Boston, Mass."}, "total serum bile acids": {"tested_on": "total serum bile acids", "experiment": "Plasma total serum bile acids in ZDF rats, week 3", "assay_type": "in vivo", "conditions": "twice daily oral gavage"}, "[5]": {"conditions": "5 mg [14C]LUM001 oral solution, eight healthy male subjects"}, "[6]": {"conditions": "5 mg [14C]LUM001 oral solution, analyte in feces"}},
  "data": [
    {"molecule": "CCCCC1(CCCC)CS(=O)(=O)c2ccc(N(C)C)cc2[C@@H](c2ccc(OCc3ccc(C[N+]45CCN(CC4)CC5)cc3)cc2)[C@H]1O", "note": "[LUM001]", "values": [
      {"measurement": "Time LUM001 remains active", "setting": "[1]", "value": "more than 4.5 hours"},
      {"measurement": "Average serum drug exposure", "setting": "[2]; Subject 0304, 1.0 mg QD (24.3 μg/kg)", "value": 0.0, "unit": "ng/mL"},
      {"measurement": "Average serum drug exposure", "setting": "[2]; Subject 0308, 1.0 mg QD (28.9 μg/kg)", "value": 0.0, "unit": "ng/mL"},
      {"measurement": "Average serum drug exposure", "setting": "[2]; Subject 0309, 1.0 mg QD (35.0 μg/kg)", "value": 0.0, "unit": "ng/mL"},
      {"measurement": "Average serum drug exposure", "setting": "[2]; Subject 0410, 2.5 mg QD (42.0 μg/kg)", "value": 0.0, "unit": "ng/mL"},
      {"measurement": "Average serum drug exposure", "setting": "[2]; Subject 0510, 5.0 mg QD (168.4 μg/kg)", "value": 0.0, "unit": "ng/mL"},
      {"measurement": "Systemic exposure of LUM001", "setting": "[2]; patients under 18 years, QD, measured on day eight", "value": "confirmed to be minimally absorbed"},
      {"measurement": "Fecal radioactivity associated with unchanged free LUM001", "setting": "[3]; 5 mg [14C]LUM001 oral solution", "value": 94, "unit": "%"},
      {"measurement": "Radioactive dose detected in plasma, whole blood or urine", "setting": "[3]; [5]", "value": "Less than 1%"},
      {"measurement": "Total radioactive dose detected in feces", "setting": "[3]; [5]", "value": 72, "unit": "%"},
      {"measurement": "Mean Percent of Dose in Feces", "setting": "[3]; [6]", "value": 65.0, "unit": "%"},
      {"measurement": "Percent of Fecal Radioactivity", "setting": "[3]; [6]", "value": 94.4, "unit": "%"},
      {"measurement": "Cumulative % of Total Dose", "setting": "[3]; Feces incl. Toilet Paper (cumulative recovery in toilet paper from first five fecal samples)", "value": 72.466, "unit": "%"},
      {"measurement": "Cumulative % of Total Dose", "setting": "[3]; Feces, 0-24 hr", "value": 30.376, "unit": "%"},
      {"measurement": "Cumulative % of Total Dose", "setting": "[3]; Feces, 24-48 hr", "value": 49.878, "unit": "%"},
      {"measurement": "Cumulative % of Total Dose", "setting": "[3]; Feces, 48-72 hr", "value": 67.630, "unit": "%"},
      {"measurement": "Cumulative % of Total Dose", "setting": "[3]; Feces, 72-96 hr", "value": 69.653, "unit": "%"},
      {"measurement": "Cumulative % of Total Dose", "setting": "[3]; Feces, 96-120 hr", "value": 71.606, "unit": "%"},
      {"measurement": "Cumulative % of Total Dose", "setting": "[3]; Feces, 120-144 hr", "value": 71.771, "unit": "%"},
      {"measurement": "Cumulative % of Total Dose", "setting": "[3]; Feces, 144-168 hr", "value": 71.815, "unit": "%"},
      {"measurement": "Cumulative % of Total Dose", "setting": "[3]; Feces, 168-192 hr", "value": 71.885, "unit": "%"},
      {"measurement": "Cumulative % of Total Dose", "setting": "[3]; Feces, 192-216 hr", "value": 71.885, "unit": "%"},
      {"measurement": "Radioactive Concentration", "setting": "[3]; Plasma, 0.5 hr", "value": "BLQ"},
      {"measurement": "Radioactive Concentration", "setting": "[3]; Plasma, 1 hr", "value": "BLQ"},
      {"measurement": "Radioactive Concentration", "setting": "[3]; Plasma, 1.5 hr", "value": "BLQ"},
      {"measurement": "Radioactive Concentration", "setting": "[3]; Plasma, 2 hr", "value": "BLQ"},
      {"measurement": "Radioactive Concentration", "setting": "[3]; Plasma, 2.5 hr", "value": "BLQ"},
      {"measurement": "Radioactive Concentration", "setting": "[3]; Plasma, 3 hr", "value": "BLQ"},
      {"measurement": "Radioactive Concentration", "setting": "[3]; Plasma, 4 hr", "value": "BLQ"},
      {"measurement": "Radioactive Concentration", "setting": "[3]; Plasma, 6 hr", "value": "BLQ"},
      {"measurement": "Radioactive Concentration", "setting": "[3]; Plasma, 8 hr", "value": "BLQ"},
      {"measurement": "Radioactive Concentration", "setting": "[3]; Plasma, 12 hr", "value": "BLQ"},
      {"measurement": "Radioactive Concentration", "setting": "[3]; Plasma, 16 hr", "value": 0.000, "unit": "ng equivalents/mL"},
      {"measurement": "Radioactive Concentration", "setting": "[3]; Plasma, 24 hr", "value": "BLQ"},
      {"measurement": "Radioactive Concentration", "setting": "[3]; Plasma, 36 hr", "value": 0.000, "unit": "ng equivalents/mL"},
      {"measurement": "Radioactive Concentration", "setting": "[3]; Plasma, 48 hr", "value": "BLQ"},
      {"measurement": "Radioactive Concentration", "setting": "[3]; Plasma, 60 hr", "value": "BLQ"},
      {"measurement": "Radioactive Concentration", "setting": "[3]; Plasma, 72 hr", "value": "BLQ"},
      {"measurement": "Cumulative % of Total Dose", "setting": "[3]; Total (Urine and Feces)", "value": 72.532, "unit": "%"},
      {"measurement": "Cumulative % of Total Dose", "setting": "[3]; Urine, 0-2 hr", "value": 0.005, "unit": "%"},
      {"measurement": "Cumulative % of Total Dose", "setting": "[3]; Urine, 2-4 hr", "value": 0.012, "unit": "%"},
      {"measurement": "Cumulative % of Total Dose", "setting": "[3]; Urine, 4-8 hr", "value": 0.028, "unit": "%"},
      {"measurement": "Cumulative % of Total Dose", "setting": "[3]; Urine, 8-12 hr", "value": 0.041, "unit": "%"},
      {"measurement": "Cumulative % of Total Dose", "setting": "[3]; Urine, 12-24 hr", "value": 0.058, "unit": "%"},
      {"measurement": "Cumulative % of Total Dose", "setting": "[3]; Urine, 24-48 hr", "value": 0.057, "unit": "%"},
      {"measurement": "Cumulative % of Total Dose", "setting": "[3]; Urine, 48-72 hr", "value": 0.062, "unit": "%"},
      {"measurement": "Cumulative % of Total Dose", "setting": "[3]; Urine, 72-96 hr", "value": 0.063, "unit": "%"},
      {"measurement": "Cumulative % of Total Dose", "setting": "[3]; Urine, 96-120 hr", "value": 0.063, "unit": "%"},
      {"measurement": "Cumulative % of Total Dose", "setting": "[3]; Urine, 120-144 hr", "value": 0.064, "unit": "%"},
      {"measurement": "Cumulative % of Total Dose", "setting": "[3]; Urine, 144-168 hr", "value": 0.066, "unit": "%"},
      {"measurement": "Radioactive Concentration", "setting": "[3]; Whole Blood, 1 hr", "value": 0.000, "unit": "ng equivalents/g"},
      {"measurement": "Radioactive Concentration", "setting": "[3]; Whole Blood, 4 hr", "value": 0.000, "unit": "ng equivalents/g"},
      {"measurement": "Radioactive Concentration", "setting": "[3]; Whole Blood, −0.5 hr", "value": 0.000, "unit": "ng equivalents/g"},
      {"measurement": "HMG-CoA Reductase, % change from vehicle group", "setting": "[4]; 1 mg/kg/day", "value": "(+128) %"},
      {"measurement": "HMG-CoA Reductase", "setting": "[4]; 1 mg/kg/day", "value": "164 ± 20", "unit": "pmol/mg/min"},
      {"measurement": "HMG-CoA Reductase, % change from vehicle group", "setting": "[4]; 4 mg/kg/day", "value": "(+242) %"},
      {"measurement": "HMG-CoA Reductase", "setting": "[4]; 4 mg/kg/day", "value": "246 ± 30", "unit": "pmol/mg/min"},
      {"measurement": "HMG-CoA Reductase, % change from vehicle group", "setting": "[4]; 12 mg/kg/day", "value": "(+449) %"},
      {"measurement": "HMG-CoA Reductase", "setting": "[4]; 12 mg/kg/day", "value": "395 ± 46", "unit": "pmol/mg/min"},
      {"measurement": "HMG-CoA Reductase, % change from vehicle group", "setting": "[4]; 30 mg/kg/day", "value": "(+656) %"},
      {"measurement": "HMG-CoA Reductase", "setting": "[4]; 30 mg/kg/day", "value": "544 ± 33", "unit": "pmol/mg/min"}
    ]},
    {"molecule": "CCCC[C@]1(CC)CS(=O)(=O)c2ccc(N(C)C)cc2[C@@H](c2cccc(NC(=O)N[C@@H]3O[C@H](COS(=O)(=O)[O-])[C@@H](O)[C@H](OCc4ccccc4)[C@H]3O)c2)[C@H]1O.CCO.O.[K+]", "note": "[LUM002, potassium((2R,3R,4S,5R,6R)-4-benzyloxy-6-{3-[3-((3S,4R,5R)-3-butyl-7-dimethylamino-3-ethyl-4-hydroxy-1,1-dioxo-2,3,4,5-tetrahydro-1H-benzo[b]thiepin-5-yl)-phenyl]-ureido}-3,5-dihydroxy-tetrahydro-pyran-2-ylmethyl)sulphate ethanolate, hydrate]", "values": [
      {"measurement": "Plasma total serum bile acids (SBA)", "setting": "total serum bile acids", "value": "statistically significant reductions in SBA"}
    ]}
  ]
}
